Patent US8563714B2, “Bridged spiro [2.4] heptane derivatives as ALX receptor and/or FPRL2 agonists” (Actelion Pharmaceuticals Ltd., priority 2009, dated 2013)

Experiments:
human FPRL2 = target: T1, human FPRL2 (Homo sapiens, UniProt P25089); assay: Intracellular calcium measurements (FLIPR), agonistic activity in HEK293-hFPRL2-Gα16 cells; assay type: cell-based; conditions: Fluo-4 calcium FLIPR, normalized to GLY14-Humanin 100 nM
T1 construct: expressed in transfected cells; host or cells: HEK293 (HEK293-hFPRL2-Gα16)
T1 sequence (P25089 1-353): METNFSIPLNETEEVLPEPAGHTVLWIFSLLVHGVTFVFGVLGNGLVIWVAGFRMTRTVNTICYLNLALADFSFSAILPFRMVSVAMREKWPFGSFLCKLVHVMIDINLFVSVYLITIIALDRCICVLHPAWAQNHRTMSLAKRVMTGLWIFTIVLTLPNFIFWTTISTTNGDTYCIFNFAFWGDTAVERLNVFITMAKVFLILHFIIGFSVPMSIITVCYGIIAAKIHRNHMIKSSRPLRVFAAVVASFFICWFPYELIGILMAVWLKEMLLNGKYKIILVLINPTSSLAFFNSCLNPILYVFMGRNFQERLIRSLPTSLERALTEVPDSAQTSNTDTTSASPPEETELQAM
Procedure, shortened: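 Peak values after baseline subtraction are expressed relative to 100 nM Gly14-Humanin; compounds diluted in assay buffer from 10 mM DMSO stocks.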

human ALX receptor = target: T2, human ALX receptor (Homo sapiens, UniProt P25090); assay: Intracellular calcium measurements (FLIPR), agonistic activity in HEK293-hALXR-Gα16 cells; assay type: cell-based; conditions: Fluo-4 calcium FLIPR, normalized to WKYMVm 10 nM
T2 construct: expressed in transfected cells; host or cells: HEK293 (HEK293-hALXR-Gα16)
T2 sequence (P25090 1-351): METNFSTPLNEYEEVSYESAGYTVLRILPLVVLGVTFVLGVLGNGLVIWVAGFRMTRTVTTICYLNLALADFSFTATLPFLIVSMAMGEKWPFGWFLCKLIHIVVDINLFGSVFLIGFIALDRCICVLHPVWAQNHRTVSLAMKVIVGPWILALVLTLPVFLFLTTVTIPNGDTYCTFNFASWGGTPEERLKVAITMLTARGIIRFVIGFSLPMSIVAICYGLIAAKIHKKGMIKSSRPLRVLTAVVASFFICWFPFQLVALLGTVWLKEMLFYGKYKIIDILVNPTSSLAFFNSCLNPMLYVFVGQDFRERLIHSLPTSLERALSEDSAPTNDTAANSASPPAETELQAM
Procedure, shortened: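 Agonist-induced calcium flux was recorded by FLIPR (488/540 nm) in HEK293-hALXR-Gα16 cells pre-loaded with Fluo-4 AM (1 μM, 60 min, 37°C). Peak signal above baseline, after subtracting buffer addition, was expressed relative to WKYMVm at 10 nM final.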

Row | EC50 (human FPRL2) | EC50 (human ALX receptor) | SMILES
1 | 4400 nM | 1.3 nM | O=C(NC1CCCC1)[C@H]1[C@H](C(=O)Nc2ccc(Br)cc2)[C@@H]2C=C[C@H]1C21CC1 (racemic) [Example 15, (5R*)—N^5-(4-Bromophenyl)-(6R*)—N^6-(cyclopentyl)-(4S*,7R*)-[4,7-ethenylene-spiro[2.4]heptane]-5,6-dicarboxamide]
2 | 255 nM | 11100 nM | Cc1ccc(C)c(CNC(=O)[C@H]2[C@H](C(=O)NCCCCN3CCCC3)[C@H]3C=C[C@@H]2C32CC2)c1 (racemic) [Example 368, (5R*)—N^5-(2,5-Dimethylphenyl-methyl)-(6R*)—N^6-(4-pyrrolidino-butyl)-(4S*,7R*)-[4,7-ethenylene-spiro[2.4]heptane]-5,6-dicarboxamide]
3 | > 25000 nM | 113 nM | NC(=O)CCNC(=O)[C@H]1[C@H](C(=O)NCc2ccc(Br)cc2)[C@@H]2CC[C@H]1C21CC1 [Example 291, (5R)—N^5-(4-Bromophenyl-methyl)-(6R)—N^6-(3-amino-3-oxopropyl)-(4S,7R)-[4,7-ethylene-spiro[2.4]heptane]-5,6-dicarboxamide]
4 | > 25000 nM | 884 nM | NC(=O)CCNC(=O)[C@H]1[C@H](C(=O)NCc2cnc(Br)s2)[C@@H]2C=C[C@H]1C21CC1 [Example 283, (5R)—N^5-(2-Bromothiazol-5-yl-methyl)-(6R)—N^6-(3-amino-3-oxopropyl)-(4S,7R)-[4,7-ethenylene-spiro[2.4]heptane]-5,6-dicarboxamide]
5 | 4420 nM | 24 nM | O=C(NC1CCNCC1)[C@H]1[C@H](C(=O)Nc2ncc(Br)s2)[C@@H]2CC[C@H]1C21CC1 [Example 330, (5R)—N^5-(5-Bromo-thiazol-2-yl)-(6R)—N^6-(piperidin-4-yl)-(4S,7R)-[4,7-ethylene-spiro[2.4]heptane]-5,6-dicarboxamide]
6 | 1190 nM | 121 nM | O=C(NCCCCN1CCCC1)[C@H]1[C@H](C(=O)Nc2ncc(Cl)s2)[C@@H]2C=C[C@H]1C21CC1 (racemic) [Example 129, (5R*)—N^5-(5-Chloro-thiazol-2-yl)-(6R*)—N^6-(4-pyrrolidin-1-yl-butyl)-(4S*,7R*)-[4,7-ethenylene-spiro[2.4]heptane]-5,6-dicarboxamide]
7 | 477 nM | 7500 nM | O=C(NCCCCN1CCCC1)[C@H]1[C@H](C(=O)NCc2cc(F)cc(F)c2F)[C@@H]2C=C[C@H]1C21CC1 (racemic) [Example 355, (5R*)—N^5-(2,3,5-Trifluorophenyl-methyl)-(6R*)—N^6-(4-pyrrolidino-butyl)-(4S*,7R*)-[4,7-ethenylene-spiro[2.4]heptane]-5,6-dicarboxamide]
8 | 7430 nM | 6.5 nM | NC(=O)CNC(=O)[C@H]1[C@H](C(=O)Nc2ccc(Br)cc2)[C@@H]2C=C[C@H]1C21CC1 (racemic) [Example 207, (5R*)—N^5-(4-Bromophenyl)-(6R*)—N^6-(2-amino-2-oxoethyl)-(4S*,7R*)-[4,7-ethenylene-spiro[2.4]heptane]-5,6-dicarboxamide]
9 | 478 nM | > 25000 nM | Cc1ccc(F)c(CNC(=O)[C@H]2[C@H](C(=O)NCCCCN3CCCC3)[C@H]3C=C[C@@H]2C32CC2)c1Cl (racemic) [Example 373, (5R*)—N^5-(2-Chloro-6-fluoro-3-methylphenyl-methyl)-(6R*)—N^6-(4-pyrrolidino-butyl)-(4S*,7R*)-[4,7-ethenylene-spiro[2.4]heptane]-5,6-dicarboxamide]
10 | 2020 nM | 298 nM | CN(C[C@H]1[C@H](C(=O)Nc2ccc(Br)cc2)[C@@H]2C=C[C@H]1C21CC1)C(=O)Cc1ccccc1Cl (racemic) [Example 182, (5R*)—N^5-(4-Bromo-phenyl)-(6R*)-6-{[N-(2-(2-chloro-phenyl)-acetyl)-N-methyl-amino]-methyl}-(4S*,7R*)-[4,7-ethenylene-spiro[2.4]heptane]-5-carboxamide]
11 | 292 nM | 49 nM | O=C(NCCCN1CCCC1)[C@H]1[C@H](C(=O)NCc2ccc(Br)cc2)[C@@H]2C=C[C@H]1C21CC1 (racemic) [Example 236, (5R*)—N^5-(4-Bromo-phenyl-methyl)-(6R*)—N^6-(3-pyrrolidin-1-yl-propyl)-(4S*,7R*)-[4,7-ethenylene-spiro[2.4]heptane]-5,6-dicarboxamide]
12 | 29 nM | 7680 nM | O=C(NCCCCN1CCCC1)[C@H]1[C@H](C(=O)NCCc2ccc3c(c2)OCO3)[C@@H]2C=C[C@H]1C21CC1 (racemic) [Example 383, (5R*)—N^5-(2-(Benzo[d][1,3]dioxol-5-yl)ethyl)-(6R*)—N^6-(4-pyrrolidino-butyl)-(4S*,7R*)-[4,7-ethenylene-spiro[2.4]heptane]-5,6-dicarboxamide]
13 | 4160 nM | 11 nM | CN(C)CCN(C)C(=O)[C@H]1[C@H](C(=O)Nc2ccc(Br)cc2)[C@@H]2C=C[C@H]1C21CC1 (racemic) [Example 45, (5R*)—N^5-(4-Bromophenyl)-(6R*)—N^6-methyl-N^6-(2-dimethylamino-ethyl)-(4S*,7R*)-[4,7-ethenylene-spiro[2.4]heptane]-5,6-dicarboxamide]
14 | 208 nM | 213 nM | O=C(NCCCCN1CCCC1)[C@H]1[C@H](C(=O)NCc2cnc(Br)s2)[C@@H]2C=C[C@H]1C21CC1 [Example 312, (5R)—N^5-(2-Bromo-thiazol-5-yl-methyl)-(6R)—N^6-(4-pyrrolidino-butyl)-(4S,7R)-[4,7-ethenylene-spiro[2.4]heptane]-5,6-dicarboxamide]
15 | 1820 nM | 131 nM | CCN1CCC(C(=O)NC[C@H]2[C@H](C(=O)Nc3ccc(Br)cc3)[C@@H]3C=C[C@H]2C32CC2)CC1 (racemic) [Example 173, (5R*)—N^5-(4-Bromo-phenyl)-(6R*)-6-{[(N-ethyl-piperidine-4-carbonyl)-amino]-methyl}-(4S*,7R*)-[4,7-ethenylene-spiro[2.4]heptane]-5-carboxamide]
16 | 4910 nM | 10 nM | NCCNC(=O)[C@H]1[C@H](C(=O)Nc2ccc(Br)cc2)[C@@H]2C=C[C@H]1C21CC1 (racemic) [Example 44, (5R*)—N^5-(4-Bromophenyl)-(6R*)—N^6-(2-amino-ethyl)-(4S*,7R*)-[4,7-ethenylene-spiro[2.4]heptane]-5,6-dicarboxamide]
17 | 182 nM | 1330 nM | O=C(NCCCCN1CCCC1)[C@H]1[C@H](C(=O)Nc2cnc(Cl)nc2)[C@@H]2C=C[C@H]1C21CC1 (racemic) [Example 142, (5R*)—N^5-(2-Chloro-pyrimidin-5-yl)-(6R*)—N^6-(4-pyrrolidin-1-yl-butyl)-(4S*,7R*)-[4,7-ethenylene-spiro[2.4]heptane]-5,6-dicarboxamide]
18 | 2600 nM | 0.82 nM | O=C(NCC1CCNCC1)[C@H]1[C@H](C(=O)Nc2ccc(Br)cc2)[C@@H]2C=C[C@H]1C21CC1 (racemic) [Example 8, (5R*)—N^5-(4-Bromophenyl)-(6R*)—N^6-(4-piperidinyl-methyl)-(4S*,7R*)-[4,7-ethenylene-spiro[2.4]heptane]-5,6-dicarboxamide]
19 | 2010 nM | 61 nM | CN(C)CCCNC(=O)[C@H]1[C@H](C(=O)Nc2ncc(Br)s2)[C@@H]2C=C[C@H]1C21CC1 (racemic) [Example 277, (5R*)—N^5-(5-Bromothiazol-2-yl)-(6R*)—N^6-(3-dimethylamino-propyl)-(4S*,7R*)-[4,7-ethenylene-spiro[2.4]heptane]-5,6-dicarboxamide]
20 | 299 nM | 121 nM | CCN(CC)CCCCNC(=O)C1C(C(=O)NCc2ccc(Br)cc2)C2C=CC1C21CC1 (stereo not drawn) [Example 272, (5R*)—N^5-(4-Bromophenyl-methyl)-(6R*)—N^6-(4-diethylamino-butyl)-(4S*,7R*)-[4,7-ethenylene-spiro[2.4]heptane]-5,6-dicarboxamide]
21 | 290 nM | 7910 nM | O=C(NCCCCN1CCCC1)[C@H]1[C@H](C(=O)NCc2cccc(C(F)(F)F)c2F)[C@@H]2C=C[C@H]1C21CC1 (racemic) [Example 357, (5R*)—N^5-(2-Fluoro-3-trifluoromethylphenyl-methyl)-(6R*)—N^6-(4-pyrrolidino-butyl)-(4S*,7R*)-[4,7-ethenylene-spiro[2.4]heptane]-5,6-dicarboxamide]
22 | 398 nM | 208 nM | O=C(Nc1ccc(Br)cc1)C1C(C(=O)NC2CCC(CN3CCCC3)CC2)C2C=CC1C21CC1 (single isomer, unassigned) [Example 222]
